# Measurements as given in ChEMBL document CHEMBL3045770, “Design and synthesis of some thieno[2,3-c]pyridazine derivatives of expected anticancer activity” (2013).
# Key:
# Type in all cases: functional
# SF-268 = assay: Cytotoxicity against Homo sapiens (human) SF268 cells after 48 hr by SRB assay; settings: SF-268, 48 h
# UACC-257 = assay: Cytotoxicity against Homo sapiens (human) UACC257 cells after 48 hr by SRB assay; settings: UACC-257, 48 h
# HCT-116 = assay: Cytotoxicity against Homo sapiens (human) HCT116 cells after 48 hr by SRB assay; settings: HCT-116, 48 h
# CAKI-1 = assay: Cytotoxicity against Homo sapiens (human) Caki1 cells after 48 hr by SRB assay; settings: CAKI-1, 48 h
# MDA-MB-231 = assay: Cytotoxicity against Homo sapiens (human) MDA-MB-231 cells after 48 hr by SRB assay; settings: MDA-MB-231, 48 h
# T47D = assay: Cytotoxicity against Homo sapiens (human) T47D cells after 48 hr by SRB assay
# SNB-19 = assay: Cytotoxicity against Homo sapiens (human) SNB19 cells after 48 hr by SRB assay; settings: SNB-19, 48 h
# PC-3 = assay: Cytotoxicity against Homo sapiens (human) PC3 cells after 48 hr by SRB assay; settings: PC-3, 48 h
# OVCAR-5 = assay: Cytotoxicity against Homo sapiens (human) OVCAR5 cells after 48 hr by SRB assay; settings: OVCAR-5, 48 h
# TK-10 = assay: Cytotoxicity against Homo sapiens (human) TK10 cells after 48 hr by SRB assay; settings: TK-10, 48 h
# MOLT-4 = assay: Cytotoxicity against Homo sapiens (human) MOLT4 cells after 48 hr by SRB assay; settings: MOLT-4, 48 h
# MDA-MB-468 = assay: Cytotoxicity against Homo sapiens (human) MDA-MB-468 cells after 48 hr by SRB assay; settings: MDA-MB-468, 48 h
# M14 = assay: Cytotoxicity against Homo sapiens (human) M14 cells after 48 hr by SRB assay; settings: M14, 48 h
# U-251 = assay: Cytotoxicity against Homo sapiens (human) U251 cells after 48 hr by SRB assay; settings: U-251, 48 h
# NCI-H460 = assay: Cytotoxicity against Homo sapiens (human) NCI-H460 cells after 48 hr by SRB assay; settings: NCI-H460, 48 h
# HCC 2998 = assay: Cytotoxicity against Homo sapiens (human) HCC2998 cells after 48 hr by SRB assay; settings: HCC 2998, 48 h
# HCT-15 = assay: Cytotoxicity against Homo sapiens (human) HCT15 cells after 48 hr by SRB assay; settings: HCT-15, 48 h
# NCI-H226 = assay: Cytotoxicity against Homo sapiens (human) NCI-H226 cells after 48 hr by SRB assay; settings: NCI-H226, 48 h
# SNB-75 = assay: Cytotoxicity against Homo sapiens (human) SNB75 cells after 48 hr by SRB assay; settings: SNB-75, 48 h
# K562 = assay: Cytotoxicity against Homo sapiens (human) K562 cells after 48 hr by SRB assay; settings: K562, 48 h
# LOX IMVI = assay: Cytotoxicity against Homo sapiens (human) LOXIMVI cells after 48 hr by SRB assay
# UACC-62 = assay: Cytotoxicity against Homo sapiens (human) UACC62 cells after 48 hr by SRB assay; settings: UACC-62, 48 h
# RXF 393 = assay: Cytotoxicity against Homo sapiens (human) RXF393 cells after 48 hr by SRB assay; settings: RXF 393, 48 h
# OVCAR-8 = assay: Cytotoxicity against Homo sapiens (human) OVCAR8 cells after 48 hr by SRB assay; settings: OVCAR-8, 48 h
# SN12C = assay: Cytotoxicity against Homo sapiens (human) SN12C cells after 48 hr by SRB assay
# NCI-H23 = assay: Cytotoxicity against Homo sapiens (human) NCI-H23 cells after 48 hr by SRB assay; settings: NCI-H23, 48 h
# ACHN = assay: Cytotoxicity against Homo sapiens (human) ACHN cells after 48 hr by SRB assay
# HOP-92 = assay: Cytotoxicity against Homo sapiens (human) HOP92 cells after 48 hr by SRB assay; settings: HOP-92, 48 h
# 786-0 = assay: Cytotoxicity against Homo sapiens (human) 786-0 cells after 48 hr by SRB assay; settings: 786-0, 48 h
# SF-539 = assay: Cytotoxicity against Homo sapiens (human) SF539 cells after 48 hr by SRB assay; settings: SF-539, 48 h
# COLO 205 = assay: Cytotoxicity against Homo sapiens (human) COLO205 cells after 48 hr by SRB assay; settings: COLO 205, 48 h
# A498 = assay: Cytotoxicity against Homo sapiens (human) A498 cells after 48 hr by SRB assay; settings: A498, 48 h
# OVCAR-4 = assay: Cytotoxicity against Homo sapiens (human) OVCAR4 cells after 48 hr by SRB assay; settings: OVCAR-4, 48 h
# [1] = read-out: LC50 (the source's name)
smiles,measurement,setting,value
Oc1c(-c2nnc(-c3ccc(Cl)cc3)o2)sc2nnc(-c3ccccc3)c(-c3ccccc3)c12,GI50,SF-268,5.52 µM
same,TGI,SF-268,18.3 µM
same,GI50,UACC-257,6.16 µM
same,TGI,UACC-257,15 µM
same,CC50,UACC-257; [1],0.0183 µM
same,GI50,HCT-116,3.97 µM
same,TGI,HCT-116,7.16 µM
same,GI50,CAKI-1,1.84 µM
same,TGI,CAKI-1,9.95 µM
same,GI50,MDA-MB-231,4.56 µM
same,TGI,MDA-MB-231,12.3 µM
same,CC50,MDA-MB-231; [1],0.0183 µM
same,GI50,T47D,4.89 µM
same,TGI,T47D,18.3 µM
same,GI50,SNB-19,4.7 µM
same,TGI,SNB-19,18.3 µM
same,GI50,PC-3,4.09 µM
same,TGI,PC-3,18.3 µM
same,CC50,PC-3; [1],0.0183 µM
same,GI50,OVCAR-5,2.18 µM
same,TGI,OVCAR-5,18.3 µM
same,CC50,OVCAR-5; [1],0.0183 µM
same,GI50,TK-10,5.14 µM
same,TGI,TK-10,16.9 µM
same,CC50,TK-10; [1],0.0183 µM
same,GI50,MOLT-4,4.47 µM
same,TGI,MOLT-4,18.3 µM
same,CC50,MOLT-4; [1],0.0183 µM
same,GI50,MDA-MB-468,5.04 µM
same,TGI,MDA-MB-468,10.5 µM
same,GI50,M14,4.99 µM
same,TGI,M14,12.2 µM
same,GI50,U-251,3.55 µM
same,TGI,U-251,18.3 µM
same,CC50,U-251; [1],0.0183 µM
same,GI50,NCI-H460,3.15 µM
same,TGI,NCI-H460,8.07 µM
same,CC50,NCI-H460; [1],0.0183 µM
same,GI50,HCC 2998,4.99 µM
same,TGI,HCC 2998,18.3 µM
same,GI50,HCT-15,2.27 µM
same,TGI,HCT-15,18.3 µM
same,GI50,NCI-H226,3.06 µM
same,TGI,NCI-H226,18.3 µM
same,CC50,NCI-H226; [1],0.0183 µM
same,GI50,SNB-75,5.74 µM
same,TGI,SNB-75,18.3 µM
same,GI50,K562,4.17 µM
same,TGI,K562,18.3 µM
same,CC50,K562; [1],0.0183 µM
same,GI50,LOX IMVI,3.73 µM
same,TGI,LOX IMVI,9.47 µM
same,CC50,LOX IMVI; [1],0.0183 µM
same,GI50,UACC-62,3.77 µM
same,TGI,UACC-62,6.61 µM
same,GI50,RXF 393,3.66 µM
same,TGI,RXF 393,18.3 µM
same,GI50,OVCAR-8,4.38 µM
same,TGI,OVCAR-8,18.3 µM
same,CC50,OVCAR-8; [1],0.0183 µM
same,GI50,SN12C,4.65 µM
same,TGI,SN12C,17.6 µM
same,GI50,NCI-H23,4.94 µM
same,TGI,NCI-H23,18.3 µM
same,GI50,ACHN,4.25 µM
same,TGI,ACHN,17.4 µM
same,CC50,ACHN; [1],0.0183 µM
same,GI50,HOP-92,3.21 µM
same,TGI,HOP-92,6.74 µM
same,CC50,HOP-92; [1],0.0183 µM
same,GI50,786-0,5.86 µM
same,TGI,786-0,18.3 µM
same,GI50,SF-539,4.75 µM
same,TGI,SF-539,15.8 µM
same,CC50,SF-539; [1],0.0183 µM
same,GI50,COLO 205,4.7 µM
same,TGI,COLO 205,18.3 µM
same,CC50,COLO 205; [1],0.0183 µM
same,GI50,A498,5.92 µM
same,TGI,A498,12.5 µM
same,CC50,A498; [1],0.0183 µM
same,GI50,OVCAR-4,4.75 µM
same,TGI,OVCAR-4,18.3 µM
same,CC50,OVCAR-4; [1],0.0183 µM
